Test results: ChEMBL document CHEMBL2384997, “2-(1H-Pyrazol-4-yl)acetic acids as CRTh2 antagonists” (Bioorg Med Chem Lett, 2013); call rule not given here

Legend:
[1] = target: T1, Prostaglandin D2 receptor 2 (Homo sapiens, UniProt Q9Y5Y4); test: Antagonist activity at CRTh2 receptor (unknown origin) overexpressed in CHOK1 cell membranes assessed as inhibition of [35S]-GTPgammaS binding preincubated for 1 hr followed by 50 nM PGD2 and 0.1 nM [35S]-GTPgammaS addition measured after 2 hrs by liquid scintillation counting analysis; assay type: functional, CHO-K1
T1 sequence (Q9Y5Y4 whole entry): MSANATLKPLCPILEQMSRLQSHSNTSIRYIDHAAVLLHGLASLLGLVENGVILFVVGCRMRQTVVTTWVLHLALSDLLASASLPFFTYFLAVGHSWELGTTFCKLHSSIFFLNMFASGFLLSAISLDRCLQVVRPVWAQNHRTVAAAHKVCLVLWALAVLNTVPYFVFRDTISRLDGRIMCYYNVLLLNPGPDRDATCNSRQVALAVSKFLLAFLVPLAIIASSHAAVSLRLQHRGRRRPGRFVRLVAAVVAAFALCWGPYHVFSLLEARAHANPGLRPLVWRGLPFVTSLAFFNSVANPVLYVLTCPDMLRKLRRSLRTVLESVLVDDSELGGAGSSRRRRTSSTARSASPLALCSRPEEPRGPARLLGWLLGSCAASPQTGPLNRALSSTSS

[2] = target: T2, Prostaglandin D2 receptor 2 (Homo sapiens) (UniProt Q9Y5Y4); conditions: CHO-K1
T2 sequence (whole entry): T1 sequence (Q9Y5Y4 whole entry)

[3] = target: T3, Prostaglandin D2 receptor (Homo sapiens) (UniProt Q13258); test: Inhibition of DP1 receptor (unknown origin) at 10 uM relative to control
T3 sequence (whole entry): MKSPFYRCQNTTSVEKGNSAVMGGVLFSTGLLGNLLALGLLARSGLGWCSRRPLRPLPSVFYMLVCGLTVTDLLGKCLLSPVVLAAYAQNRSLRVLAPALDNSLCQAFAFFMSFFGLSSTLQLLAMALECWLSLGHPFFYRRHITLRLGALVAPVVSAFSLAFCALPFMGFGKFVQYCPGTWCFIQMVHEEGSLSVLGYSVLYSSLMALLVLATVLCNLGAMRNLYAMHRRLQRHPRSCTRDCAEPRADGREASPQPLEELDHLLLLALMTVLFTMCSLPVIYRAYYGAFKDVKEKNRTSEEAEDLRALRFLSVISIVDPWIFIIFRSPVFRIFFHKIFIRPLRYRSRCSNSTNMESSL

[4] = target: T4, Thromboxane A2 receptor (Homo sapiens) (UniProt P21731); test: Inhibition of thromboxane A2 receptor (unknown origin) at 10 uM relative to control
T4 sequence (whole entry): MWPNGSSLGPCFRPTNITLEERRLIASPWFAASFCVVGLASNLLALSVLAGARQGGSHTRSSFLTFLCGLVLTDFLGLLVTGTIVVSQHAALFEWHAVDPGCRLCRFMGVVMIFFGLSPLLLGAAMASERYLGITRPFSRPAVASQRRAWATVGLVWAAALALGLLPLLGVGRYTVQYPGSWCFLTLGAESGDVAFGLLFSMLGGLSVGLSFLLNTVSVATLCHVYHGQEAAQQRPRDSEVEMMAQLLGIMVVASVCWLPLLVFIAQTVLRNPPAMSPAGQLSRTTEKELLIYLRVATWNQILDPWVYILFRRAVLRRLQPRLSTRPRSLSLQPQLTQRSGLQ

| SMILES | IC50 ([1]; read-out: IC50) [µM] | other results |
| --- | --- | --- |
| Cc1c(CC(=O)O)c(-c2ccccc2)nn1S(=O)(=O)c1ccc(Cl)c(Cl)c1 | 1.6 | – |
| Cc1c(CC(=O)O)c(-c2ccccc2)nn1Cc1ccc(S(C)(=O)=O)cc1 | – | IC50 ([1]; cho-k1): Not Active |
| Cc1nn(Cc2ccc(S(C)(=O)=O)cc2)c(C)c1CC(=O)O | 5 | – |
| Cc1c(CC(=O)O)c(-c2ccccc2)nn1Cc1ccccc1CS(=O)(=O)c1ccccc1 | 0.49 | – |
| Cc1c(CC(=O)O)c(-c2ccccc2)nn1Cc1ccccc1C(=O)c1ccccc1 | 1.4 | – |
| COc1c(CC(=O)O)c(C)nn1-c1cccc(NC(=O)[C@H]2C[C@@H]2c2ccccc2)c1 | 1.6 | – |
| Cc1c(CC(=O)O)c(-c2ccccc2)nn1Cc1ccc(F)cc1S(=O)(=O)N1CCNCC1 | 5 | – |
| Cc1c(CC(=O)O)c(-c2ccccc2)nn1C(C)c1ccccc1S(=O)(=O)c1ccccc1 (stereo not given) | 2.9 | – |
| Cc1c(CC(=O)O)c(-c2ccc(O)nc2)nn1C(c1ccc(F)cc1)c1ccc(F)cc1 | – | IC50 ([1]; cho-k1): Not Active |
| Cc1c(CC(=O)O)c(-c2ccccc2)nn1C(c1ccc(F)cc1)c1ccc(S(C)(=O)=O)cc1 (stereo not given) | 5 | – |
| Cc1c(CC(=O)O)c(-c2ccncc2)nn1C(c1ccc(F)cc1)c1ccc(F)cc1 | 0.046 | T1/2 [2]: 30 min; inhibition [3]: < 40%; inhibition [4]: < 40% |
| Cc1c(CC(=O)O)c(-c2ccccc2)nn1Cc1ccccc1-c1ccccc1 | 5 | – |
| Cc1c(CC(=O)O)c(-c2ccccc2)nn1Cc1ccc2ccccc2n1 | 0.87 | – |
| Cc1c(CC(=O)O)c(=O)[nH]n1Cc1ccccc1S(=O)(=O)c1ccccc1 | – | inhibition [3]: < 40%; inhibition [4]: < 40% |
| Cc1c(CC(=O)O)c(-c2ccncc2)nn1Cc1ccc(F)cc1 | 1.9 | – |
| O=C(O)Cc1cn(C(c2ccc(F)cc2)c2ccc(F)cc2)nc1-c1ccncc1 | 0.29 | – |
